Experimental data taken from patent publication US10966978B2, “Dose and regimen for HDM2-p53 interaction inhibitors” (Novartis AG, priority 2016, dated 2021).

System: human SJSA-1 (osteosarcoma) xenograft
Experiment: PK/PD tumor growth modelling, human SJSA-1 xenograft rat model
Format: in vivo
Conditions: predicted preclinical target
Method: Calculation of average dose level (mg/day):
To further support the preferred dose for HDM201, compartmental PK modeling was used to estimate the individual average concentration per cycle for the 9 patients treated at 120 mg on regimen 1B (FIG. 2). For the majority of patients (7 out of 9), the estimated average drug concentrations per cycle were near or above the most conservative average tumor stasis concentration of ≈41 ng/mL per cycle determined from PKPD modeling of preclinical data (human SJSA-1 xenograft rat model).

Structure (SMILES): COc1ncc(-c2nc3c(n2C(C)C)[C@H](c2ccc(Cl)cc2)N(c2cc(Cl)cn(C)c2=O)C3=O)c(OC)n1 [HDM201, (S)-5-(5-Chloro-1-methyl-2-oxo-1,2-dihydro-pyridin-3-yl)-6-(4-chloro-phenyl)-2-(2,4-dimethoxy-pyrimidin-5-yl)-1-isopropyl-5,6-dihydro-1H-pyrrolo[3,4-d]imidazol-4-one]
- average concentration (target efficacious level) for 95% tumor regression: 120 ng/mL
